{"source": "ChEMBL document CHEMBL1157539", "about": "“Thousands of chemical starting points for antimalarial lead identification” (Nature, 2010)", "data": [{"system": "Plasmodium falciparum", "assay": "GSK_TCMDC: Inhibition of Plasmodium falciparum 3D7 in whole erythrocytes, using parasite LDH activity as an index of growth.", "assay_type": "functional, organism-based", "settings": "Plasmodium falciparum, 3D7", "units": {"XC50": "nM"}, "values": [{"smiles": "COc1cc(-c2ccccc2)ccc1C(=O)Nc1ccc2c(c1)N(C)CCC2", "XC50": 325}, {"smiles": "CCc1cc2c3c(N)nc(N)nc3ccc2n1C(CC)CC", "XC50": 63.7}, {"smiles": "COc1ccc2nccc([C@@H](O)CN3CCC(NC(=O)C(c4cc5ccccc5o4)N4CCN(c5ccc(F)cc5)CC4)CC3)c2c1", "note": "(stereo not given in full)", "XC50": 197}, {"smiles": "COc1ccc(CNCc2ccc(-c3ccc(-c4nc5cc(C(F)(F)F)ccc5[nH]4)s3)cc2)cc1", "XC50": 174}, {"smiles": "Oc1ccc(CN2CCC(NCc3cccc4ccccc34)CC2)cc1", "XC50": 1200}, {"smiles": "Nc1c(I)cc(C(=O)Nc2ccc3nc4c(c(N)c3c2)CCCC4)cc1I", "XC50": 143}, {"smiles": "COc1ccc(C2CC(c3ccccc3)=NN2C(=O)c2ccc(Br)o2)cc1", "note": "(stereo not given)", "XC50": 323}, {"smiles": "CC[C@H]1CN2CC[C@H]1C[C@H]2[C@H](O)c1cc(-c2ccc(Cl)c(Cl)c2)nc2ccc(OC)cc12", "XC50": 115}, {"smiles": "CCCC1N=C(N)N=C(N)N1c1cccc([N+](=O)[O-])c1", "note": "(stereo not given)", "XC50": 760}, {"smiles": "Cn1cc(CN2CCCC(COC(c3ccccc3)c3ccccc3)C2)cn1", "note": "(stereo not given)", "XC50": 775}, {"smiles": "COc1ccc2nccc([C@@H](O)CN3CCC(NC(=O)/C=C/c4cc(F)cc(NC(C)=O)c4)CC3)c2c1", "XC50": 183}, {"smiles": "O=C(NCCc1ccc(Cl)c(Cl)c1)[C@@H]1CCCN1C(=O)c1ccc(O)c(-c2cccc(C(F)(F)F)c2)c1", "XC50": 825}, {"smiles": "O=c1cc(NCCCNCc2cc(Cl)c(Cl)cc2Cl)[nH]c2ccccc12", "XC50": 966}, {"smiles": "COc1ccc2ncc(F)c(CCN3CC[C@@H](CNCc4cc(C)c5c(c4)OCCO5)C3)c2n1", "XC50": 890}, {"smiles": "COc1ccc(CCN(Cc2cccs2)C(=O)c2cc3sccc3n2C)cc1OC", "XC50": 349}, {"smiles": "OCCN1CCN(C(=S)NC2CCCCC2)CC1", "XC50": 1100}, {"smiles": "O=C(/C=C/c1ccc(Cl)cc1)NCCCCCN1CCC(C(=O)Nc2ccc(Cl)c(Cl)c2)CC1", "XC50": 766}, {"smiles": "Nc1nc(N)c2c(ccc3c2ccn3CCCF)n1", "XC50": 149}, {"smiles": "N#Cc1cc([N+](=O)[O-])ccc1-n1nc(C(N)=O)n(Cc2cccc(F)c2)c1=S", "XC50": 721}, {"smiles": "CCNc1cc(C(=O)N[C@@H](Cc2ccc(F)c(F)c2)[C@H](O)CNCc2cccc(OC)c2)cc(N2CCCCS2(=O)=O)c1", "XC50": 749}, {"smiles": "COc1cccc(C2CCN(CCN3CCC(NC(=O)c4ccc(-c5ccc(C(F)(F)F)cc5)cc4)CC3)CC2)c1", "XC50": 203}, {"smiles": "CCCCCN1CCCN(Cc2cccc(NC(=O)c3ccc4ccccc4c3)c2)CC1", "XC50": 1220}, {"smiles": "CCc1ccccc1NC(=O)CN1CCN(c2ncnc3scc(-c4ccc(F)cc4)c23)CC1", "XC50": 702}, {"smiles": "O=C(/C=C/c1c(Cl)cccc1Cl)NC1CCC(CN2CCC(Cc3cc4ccccc4[nH]3)CC2)CC1", "note": "(stereo not given)", "XC50": 975}, {"smiles": "Cc1ccc(C(=O)Nc2ccc(Nc3ccnc4cc(-c5ccncc5)ccc34)cc2O)cc1", "XC50": 929}, {"smiles": "CN(C)CC(=O)N(Cc1ccc(Cl)c(Cl)c1)Cc1csc(-c2ccc(CNCc3ccccc3)cc2)n1", "XC50": 1050}, {"smiles": "NCCCN(Cc1ccc(Cl)c(Cl)c1)C(=O)Nc1ccc(Cl)c(Cl)c1", "XC50": 898}, {"smiles": "Cc1ccc(C(=O)N2CCN(Cc3nccs3)CC2)cc1", "XC50": 1010}, {"smiles": "COc1ccc2nc(NC(N)=NC(=O)Nc3ccccc3)nc(C)c2c1", "XC50": 1280}, {"smiles": "COc1ccc(-c2ccc(NC(=O)c3cccs3)cc2)cc1CN1CCCN(C)CC1", "XC50": 964}, {"smiles": "CNC(=N)c1ccc(NC(=O)c2ccc(C(=O)Nc3ccc(C(=N)NC)cc3)cc2)cc1", "XC50": 47.1}, {"smiles": "COc1ccccc1N1CCN(CCCCNC(=O)c2ccc(NC(=O)c3cc4ccccc4o3)cc2)CC1", "XC50": 978}, {"smiles": "CNCCNCc1cccc(-c2ccc(-c3nc4cc(C(F)(F)F)ccc4[nH]3)s2)c1", "XC50": 823}, {"smiles": "O=C(Nc1ccc(Oc2ccccc2)cc1)N[C@H]1CCN(Cc2ccc(OCCCN3CCCCC3)cc2)C1", "XC50": 179}, {"smiles": "COc1cccc(NC(=O)NC2CCN(CCCCCNC(=O)/C=C/c3ccc(Cl)c(Cl)c3)CC2)c1", "XC50": 777}, {"smiles": "CC(C)(C)NC(=O)C(c1ccc(F)cc1)N(C(=O)c1ccc(CN2CCOCC2)o1)c1ccc(C2CCCCC2)cc1", "note": "(stereo not given)", "XC50": 925}, {"smiles": "Cc1[nH]c(C)c(-c2ccc(CCc3ccc(C(F)(F)F)cc3)nc2)c(=O)c1Cl", "XC50": 88.1}, {"smiles": "Cc1nc(C)c(-c2ccc(Oc3ccc(Cl)cc3Cl)cc2)c(O)c1Br", "XC50": 297}, {"smiles": "CC(C)(C)c1ccccc1OC(=O)c1ccccc1", "XC50": 740}, {"smiles": "COc1cc(C(=O)N2COCC(CCCN3CCC(N4CCCC4)CC3)(c3ccc(Cl)c(Cl)c3)C2)cc(OC)c1OC", "note": "(stereo not given)", "XC50": 785}, {"smiles": "Cc1ccccc1C1=CCN(CCCN2c3ccccc3Sc3ccc(Cl)cc32)CC1", "XC50": 871}, {"smiles": "CCCN(CCC)CC(O)COc1ccccc1C(=O)Nc1ccccc1", "note": "(stereo not given)", "XC50": 799}, {"smiles": "Cc1cccc2nc(-c3cccc(-c4cccc(CN5CCN(c6ccncc6)CC5)c4)c3)[nH]c12", "XC50": 200}, {"smiles": "O=C(Nc1cccc(C(F)(F)F)c1)c1cccc(S(=O)(=O)NCC2CCCN(CC3CCCCC3)C2)c1", "note": "(stereo not given)", "XC50": 880}, {"smiles": "COc1ccc([N+](=O)[O-])cc1N(Cc1ccccc1-c1ccccc1)S(=O)(=O)c1ccc(C(F)(F)F)cc1[N+](=O)[O-]", "XC50": 1050}, {"smiles": "CC(C)C[C@H](NC(=O)c1ccc(F)cc1)C(=O)N[C@H](/C=N/NC(=O)c1ccccc1)CCc1ccccc1", "XC50": 812}, {"smiles": "CC(C)(c1ccccc1)c1ccc(O)c(CN2CCOCC2)c1", "XC50": 984}, {"smiles": "Oc1c(C(Nc2nc3ccccc3s2)c2ccc(OC(F)F)cc2)ccc2cccnc12", "note": "(stereo not given)", "XC50": 571}, {"smiles": "COc1cccc2cc(C(=O)N[C@@H](CC(C)C)C(=O)N[C@H](/C=N/NC(=O)OC(C)(C)C)CC(=O)OC(C)(C)C)oc12", "XC50": 403}, {"smiles": "N#Cc1ccc(N2CCN(Cc3ccc(-c4ccc(-c5nc6cc(F)ccc6[nH]5)s4)cc3)CC2)nc1", "XC50": 854}, {"smiles": "CCC(=O)NC(c1ccco1)c1cc(Cl)c2cccnc2c1O", "note": "(stereo not given)", "XC50": 875}, {"smiles": "CNC(=O)c1nc(-c2ccccc2)[nH]c1NC(C)=O", "XC50": 152}, {"smiles": "Cc1cccc2nc(-c3ccc(-c4cccc(NC(=O)Nc5cccc(C#N)c5)c4)cc3)[nH]c12", "XC50": 544}, {"smiles": "O=C(CSc1nn(-c2ccccc2)c(=S)s1)c1c[nH]c2ccccc12", "XC50": 1090}, {"smiles": "CO/C(=C\\C=C\\c1cc2cc(Cl)c(Cl)cc2[nH]1)C(=O)NCCCN1CCCC[C@@H]1C", "XC50": 755}, {"smiles": "O=C1Nc2cccc3c2C1(CCCCN1CC=C(c2c[nH]c4ncccc24)CC1)CCC3", "note": "(stereo not given)", "XC50": 395}, {"smiles": "N#Cc1ccc(N(CCOc2ccc3c(c2)CCC(=O)N3)Cc2ccccc2C(F)(F)F)cc1C(F)(F)F", "XC50": 763}, {"smiles": "CSc1ccccc1NC(=S)NC1CCN(CCCCCNC(=O)/C=C/c2ccc(Cl)c(Cl)c2)CC1", "XC50": 778}, {"smiles": "CCCc1cc(O)c2c3c(c(=O)oc2c1)CN(C)CC3", "XC50": 873}, {"smiles": "CCC[C@@H]([C@@H](CC(C)C)C(=O)N[C@H](C(=O)Nc1nccs1)C(C)(C)SCCNC(=O)OCC)N(O)C=O", "XC50": 173}, {"smiles": "C=CCC(C)n1ncc2c3c(N)nc(N)nc3ccc21", "note": "(stereo not given)", "XC50": 50}, {"smiles": "Cc1cccc(-c2nn(-c3ccccc3)c3[nH]c(=O)c(CNC4CCCC4)cc23)c1", "XC50": 759}, {"smiles": "CNCCNCc1ccc(-c2ccc(-c3nc4cc(F)ccc4[nH]3)cc2)cc1", "XC50": 387}, {"smiles": "CCCNCc1ccc(-c2ccc(CNC3Cc4ccccc4C3)cc2)nc1", "XC50": 848}, {"smiles": "COc1cc(-c2nc3ccc(N4CCN(C)CC4)cc3[nH]2)cc(OC)c1OC", "XC50": 1270}, {"smiles": "COc1cc2nc(N3CCC(c4ccccc4)CC3)nc(NCc3ccc(=O)[nH]c3)c2cc1OC", "XC50": 755}, {"smiles": "CCCCCCn1c(Sc2ccc(C#N)c([N+](=O)[O-])c2)nnc1-c1cccs1", "XC50": 706}, {"smiles": "O=C(C=Cc1cccc(F)c1)NC1CCC(CCN2CCc3ccc(-c4cnccn4)cc3CC2)CC1", "note": "(stereo not given)", "XC50": 454}, {"smiles": "CCCOc1cc(Cc2cnc(N)nc2N)cc(OC)c1OC", "XC50": 1170}, {"smiles": "CCCC(=O)c1cnc2cc(O)ccc2c1Nc1ccccc1C", "XC50": 651}]}]}
